Several values for one entry are separate records, joined by “and”; a condition that tells them apart may be missing. Identical values can stand only once. Like-named read-outs stand apart in the source and are kept apart here.
Experiments:
[1] = by volume, wet dispersion in Isopar G, sonicated 3 minutes; mesylate
From the text: The particle size parameters measured in the present disclosure have been obtained by means of laser light diffraction technique, and specifically by means of a Malvern Mastersizer S particle size analyzer having characteristics as set out below. Namely, the laser source used was a 2 milliwatt Helium/neon laser (633 nm wavelength); the detection system was a Fourier Transform lens system; the sample was run using a […]; the sample unit was a sample unit for wet measurement, and particularly was a MS1-Small volume Sample Dispersion Unit stirred cell. The wet dispersion was prepared by using a solution of 1.5 g of Soybean Lecithin in 200 mL of Isopar G as a sample dispersant, and the dispersion was controlled by stirring the unit cell. […] The characterization parameters (volume distributions) were measured for at least six times for each sample, and the result is a mean of said measured values for each sample.
A 300RF mm lens and a beam length of 2.4 mm were used. Preparation of sample dispersant: 1.5 g of Soybean Lecithin was added to 200 mL of Isopar G, and the mixture was mixed gently until Lecithin dissolved. […] The paste was delivered to the previously background and corrected measuring cell filled with dispersant (Isopar G) until the obscuration reached the desired level. The suspension was sonicated for 3 minutes. Volume distributions were obtained for at least six measures. After completing the measurements, the sample cell was emptied and cleaned, refilled with suspending medium, and the sampling procedure repeated again. For characterization, the values of D10, D50 and D90 (by volume) were specifically listed, each one being the mean of the measured values available for each characterization parameter.
The notation Dx [also written as D(v, 0.X)] means that X % of the particles have a diameter less than a specified diameter D. Thus a D90 [or D(v, 0.9)] of 100 μm means that 90% of the particles have a diameter less than 100 μm.

[2] = N2 at 77 K, relative pressures 0.05 to 0.3; mesylate
From the text: The specific surface area values disclosed in the present disclosure have been obtained by means of a specific surface area analysis technique based on the BET (Brunauer, Emmett and Teller) theory, which is a well-accepted theory known in the art for the calculation of surface areas of solids by means of measuring their physical adsorption of gas molecules (See S. Brunauer, P. H. Emmett and E. Teller, J. Am. Chem. Soc., 1938, 60, 309). In particular, the specific surface area values measured have been calculated from the BET surface area plot obtained by measuring the quantity of nitrogen gas molecules adsorbed by a weighted amount of solid at different relative pressures (P/P0) within the range 0.05 to 0.3, at 77K. Precisely, the measurement of the adsorption of gas molecules was carried out by means of a Micromeritics™ Gemini V equipment having the characteristics as set out below. Namely, the gas used for adsorption measure was nitrogen gas. […] The sample for analysis was degassed (at 30° C. for 10 minutes and at 130° C. for 90 minutes). The determination of the adsorption of nitrogen was measured at 77K and for twelve relative pressures sufficiently dispersed within in the range of 0.05 to 0.3 (i.e. twelve absolute pressures in the range of 38.860001 mmHg to 230.464996 mmHg relative to a saturated pressure of 765.705017 mmHg).
The sample for analysis was degassed at 30° C. for 10 minutes and at 130° C. for 90 minutes.

[3] = WO 2008/019871 Example 8, prepared in isopropanol; cited from earlier work
[4] = cited from earlier work
[5] = heating at 80° C. for 72, 96 or 144 hours, and refluxing in isopropanol for 30 hours; cited from earlier work
[6] = material with D90 of less than 6 μm stored at 25±2° C., 65±5% relative humidity, 5 days; cited from earlier work
[7] = cited from earlier work; remark: listed apart in the source
[8] = Experimental: The substantial absence of agglomeration in accordance with the present invention can be determined by visual inspection and/or by optical microscopy. […] That is, the smallest agglomerate to be observed by particle size analysis would be the agglomerate resultant of the union of a single crystal with another which would lead to an increase of 100% in the D90 and/or the D50 measured value.
The chromatographic separation was carried out in a Chiralpak IC, 5 μm, 250×4.6 mm I.D column; at 30° C.
The mobile phase was prepared by mixing 950 mL of n-hexane, 40 mL of 2-propanol, 10 mL of ethanol, 4 mL of trifluoroacetic acid and 1 mL of diethylamine. The mixture was mixed thoroughly.
The chromatograph was equipped with a 265 nm detector, and the flow rate was 1.4 mL per minute.
The test samples were prepared by dissolving the appropriate amount of sample to obtain 10 mg per mL in diluent. The diluent was prepared by mixing 89 mL of mobile phase, 10 mL of 2-propanol and 1 mL of diethylamine. The injection volume was 5 μL.
Samples were taken and analyzed after 1, 2, 3 and 6 months storage.

[9] = 25° C.±1° C., 80%±2% relative humidity, 24 hours
Experimental: The percentage increase in mass was calculated based on the hygroscopicity method described in the European Pharmacopoeia 5.0 (general chapter 5.11).

Row | SMILES | Particle size D(v, 0.1) [1] | Particle size D(v, 0.5) [1] | Particle size D(v, 0.9) [1] | Specific Surface Area (BET) [2] | further results
1 | C#CCN[C@@H]1CCc2ccccc21.CS(=O)(=O)O [Example 1, R-(+)-N-propargyl-1-aminoindan mesylate] | 30.6 μm | 89.0 μm | 163.6 μm | 0.0722 m^2/g | 
2 | C#CCN[C@@H]1CCc2ccccc21.CS(=O)(=O)O [rasagiline mesylate, R-(+)-N-propargyl-1-aminoindan mesylate] |  |  |  |  | Particle size d(0.1) [3]: 13.6±0.05 μm; Particle size d(0.5) [3]: 40.5±0.25 μm; Particle size d(0.9) [3]: 85.7±0.89 μm; Particles below 250 μm [3]: 100%; Behaviour of the powder on storage ([4]; 4 weeks at 40° C., 75% relative humidity in an opened container): transforms into a sticky powder; Behaviour of the powder on storage ([4]; 4 weeks at 60° C. in a closed glass bottle): agglomerates; Change in water content on storage ([4]; 4 weeks storage, WO 2008/019871 Example 5): no substantial changes; Appearance [5]: kept an appearance of white powder; D90 after storage [6]: approximately 151 μm; d(0.9) or D90 after milling ([7]; after milling): 156-189 μm; d(0.9) or D90 before milling ([7]; samples containing large, irregular particles, initial): 386-598 μm
3 | C#CCN[C@@H]1CCc2ccccc21.CS(=O)(=O)O [Example 4, R-(+)-N-propargyl-1-aminoindan mesylate] | 54.9 μm | 208.5 μm | 464.0 μm | 0.1434 m^2/g | Total impurities (HPLC) ([8]; 1 month, 40±2° C., 75%±5% relative humidity): <0.05%; Total impurities (HPLC) ([8]; 2 months, 40±2° C., 75%±5% relative humidity): <0.05%; Total impurities (HPLC) ([8]; 3 months, 40±2° C., 75%±5% relative humidity): <0.05%; Total impurities (HPLC) ([8]; 6 months, 40±2° C., 75%±5% relative humidity): <0.05%; Total impurities (HPLC) ([8]; Initial sample): <0.05%; % Mass increase [9]: 0.01%; Hygroscopicity (in words) [9]: not hygroscopic material
4 | C#CCN[C@@H]1CCc2ccccc21.CS(=O)(=O)O [Example 3, R-(+)-N-propargyl-1-aminoindan mesylate] | 37.4 μm | 159.6 μm | 404.2 μm | 0.0474 m^2/g | 
5 | C#CCN[C@@H]1CCc2ccccc21.CS(=O)(=O)O [Reference Example 3, R-(+)-N-propargyl-1-aminoindan mesylate] | 127.5 μm | 311.2 μm | 611 μm and 611.1 μm | 0.0274 m^2/g | 
6 | C#CCN[C@@H]1CCc2ccccc21.CS(=O)(=O)O [Reference Example 1, R-(+)-N-propargyl-1-aminoindan mesylate] | 17.4 μm | 62.6 μm | 118.0 μm | 0.3216 m^2/g | 
7 | C#CCN[C@@H]1CCc2ccccc21.CS(=O)(=O)O [Example 2, R-(+)-N-propargyl-1-aminoindan mesylate] | 37.0 μm | 118.7 μm | 246.7 μm |  | 
8 | C#CCN[C@@H]1CCc2ccccc21.CS(=O)(=O)O [Reference Example 2, R-(+)-N-propargyl-1-aminoindan mesylate] | 14.7 μm | 60.2 μm | 143.6 μm | 0.2490 m^2/g | 

Reference: patent US20110015274A1, “FORM OF AN […] DERIVATIVE” (priority 2009, published 2011)
